Measurements reported in patent US10555987B2, “GHRH agonists for the treatment of ischemic disorders” (UNIVERSITY OF MIAMI, priority 2012, dated 2020).
Non-standard residues stand in square brackets, D forms with d. Residues, ends and D or L forms follow the SMILES beside them. Phe(F5) = N[C@@H](Cc1c(F)c(F)c(F)c(F)c1F)C(=O)O; NMeY = CN[C@@H](Cc1ccc(O)cc1)C(=O)O; Nle = CCCC[C@H](N)C(=O)O; Orn = NCCC[C@H](N)C(=O)O; Abu = CC[C@H](N)C(=O)O

Tests used:
[1] = test system: myocardial infarction (Fisher-344 rats); test: Serial echocardiography after MI, compared to JI-38 (Example 15, Table 15); format: in vivo, rat; parameters: key to LVEDD: Left Ventricular End Diastolic Diameter / LVESD: Left Ventricular End Systolic Diameter / VD: Ventricular Diastole / VS: Ventricular Systole / EF: Ejection Fraction / FS: Fraction Shortening: ↓: downward arrow denotes lower than JI-38; ↑: upward arrow denotes greater than JI-38; =denotes same as JI-38; ⬇⬇: double arrow denotes greater effect; ⬆⬆: double arrow denotes greater effect; conditions: for EF: Ejection Fraction / FS: Fraction Shortening / LVEDD: Left Ventricular End Diastolic Diameter / LVESD: Left Ventricular End Systolic Diameter / VD: Ventricular Diastole / VS: Ventricular Systole: in comparison to JI-38
How it was run: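 Female 6-month-old Fisher-344 rats with permanent left coronary artery ligation received placebo, JI-38 or GHRH agonists subcutaneously twice daily from 2 h post-surgery (10 per group). Under 2% isoflurane, M-mode LVEDD, LVESD and FS plus long-axis EF were measured at baseline, 2 days, 1, 2 and 4 weeks.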

[2] = test system: myocardial infarction (Fisher-344 rats); test: Hemodynamic analysis (pressure-volume loops), body and heart weight after MI, compared to JI-38 (Example 15, Table 16); format: in vivo, rat; parameters: key to ESP (End-Systolic Pressure) / EDP (End-Diastolic Pressure) / ESV (End-Systolic Volume) / PRSW (Preload Recruitable Stroke Work) / Ees (End-systolic Elastance) / dP/dt max (peak rate of the pressure rise) / dP/dt max_EDV / dP/dt min / TAU (relaxation time constant calculated by Weiss method) / SV (Stroke Volume) / CO (Cardiac Output) / SW (Stroke Work) / EF / Ea/Ees / Ea (arterial Elastance): ↓: downward arrow denotes lower than JI-38; ↑: upward arrow denotes greater than JI-38; =denotes same as JI-38; ⬇⬇: double arrow denotes greater effect; ⬆⬆: double arrow denotes greater effect; conditions: for CO (Cardiac Output) / EDP (End-Diastolic Pressure) / EF / ESP (End-Systolic Pressure) / ESV (End-Systolic Volume) / Ea (arterial Elastance) / Ea/Ees / Ees (End-systolic Elastance) / PRSW (Preload Recruitable Stroke Work) / SV (Stroke Volume) / SW (Stroke Work) / TAU (relaxation time constant calculated by Weiss method) / dP/dt max (peak rate of the pressure rise) / dP/dt max_EDV / dP/dt min: rat MI model, s.c. twice daily, pressure-volume loops, expressed in comparison to JI-38
How it was run: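 Female 6-month-old Fisher-344 rats after permanent left coronary ligation received GHRH agonists subcutaneously twice daily from 2 h post-surgery (n=10/group). Under ketamine/xylazine/acepromazine anesthesia, LV pressure-volume loops were recorded via carotid micromanometer catheter, calibrated by hypertonic saline bolus and cuvette method; echocardiography also serial.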

[3] = target: T1, GHRH receptor (Homo sapiens, UniProt Q02643); test: Receptor binding in vitro, 125I-labeled [His1,Nle27]-hGHRH(1-32)NH2, membrane receptors of human anterior pituitary cells (Table 14); conditions: for Relative affinity (Binding potency) compared to JI-38: JI-38 = 1; for Relative affinity (Binding potency) compared to hGHRH(1-29): hGHRH(1-29)NH2 = 1
T1 sequence (Q02643 23-423): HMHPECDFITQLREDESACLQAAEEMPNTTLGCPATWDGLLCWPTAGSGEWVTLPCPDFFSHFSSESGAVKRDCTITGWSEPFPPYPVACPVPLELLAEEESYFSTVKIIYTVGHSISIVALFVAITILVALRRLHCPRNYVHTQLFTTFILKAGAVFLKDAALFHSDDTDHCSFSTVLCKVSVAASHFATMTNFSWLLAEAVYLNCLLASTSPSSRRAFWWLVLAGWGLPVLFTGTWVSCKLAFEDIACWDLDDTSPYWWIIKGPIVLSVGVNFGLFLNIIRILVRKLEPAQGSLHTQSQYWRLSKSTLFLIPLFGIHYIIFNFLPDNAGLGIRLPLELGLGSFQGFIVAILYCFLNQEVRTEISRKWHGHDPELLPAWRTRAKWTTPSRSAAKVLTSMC
Source text: Normal human pituitary was purchased from the National Hormone and Peptide Program (UCLA Medical Center, Torrance, Calif.).

[4] = test system: GH release; test: In vivo endocrine activity, GH release after subcutaneous administration (Table 9); conditions: rat; for Stimulation of growth hormone levels after subcutaneous administration (in words): s.c.; for GH releasing potency relative to JI-38 (=1): subcutaneous (s.c.) injection
Protocol: Subcutaneous Administration. Adult male rats were used and anesthetized with pentobarbital (6 mg/100 g, b.w.), by i.p. injection. […] Blood samples were taken from the jugular vein 5, 15 and/or 30 minutes after the injection. The blood samples were centrifuged, plasma was removed and the GH level was measured byELISA. The results are summarized in terms of potency in Table 9.

| Compound | EF: Ejection Fraction [1] | FS: Fraction Shortening [1] | LVEDD: Left Ventricular End Diastolic Diameter [1] | LVESD: Left Ventricular End Systolic Diameter [1] | VD: Ventricular Diastole [1] | VS: Ventricular Systole [1] | CO (Cardiac Output) [2] | EDP (End-Diastolic Pressure) [2] | EF [2] | ESP (End-Systolic Pressure) [2] | ESV (End-Systolic Volume) [2] | Ea (arterial Elastance) [2] | Ea/Ees [2] | Ees (End-systolic Elastance) [2] | PRSW (Preload Recruitable Stroke Work) [2] | SV (Stroke Volume) [2] | SW (Stroke Work) [2] | TAU (relaxation time constant calculated by Weiss method) [2] | dP/dt max (peak rate of the pressure rise) [2] | dP/dt max_EDV [2] | also measured |
| --- | --- | --- | --- | --- | --- | --- | --- | --- | --- | --- | --- | --- | --- | --- | --- | --- | --- | --- | --- | --- | --- |
| CCCC[C@H](NC(=O)[C@@H](NC(=O)[C@H](CC(=O)O)NC(=O)[C@H](CCC(N)=O)NC(=O)[C@H](CC(C)C)NC(=O)[C@H](CC(C)C)NC(=O)[C@H](CCCN)NC(=O)[C@H](CCCNC(=N)N)NC(=O)[C@H](C)NC(=O)[C@H](CO)NC(=O)[C@H](CC(C)C)NC(=O)[C@H](CCC(N)=O)NC(=O)[C@H](CC)NC(=O)[C@H](CC(C)C)NC(=O)[C@@H](NC(=O)[C@H](CCCN)NC(=O)[C@H](CCCNC(=N)N)NC(=O)[C@H](Cc1ccc(O)cc1)NC(=O)[C@H](CO)NC(=O)[C@H](CCC(N)=O)NC(=O)[C@@H](NC(=O)[C@H](Cc1c(F)c(F)c(F)c(F)c1F)NC(=O)[C@@H](NC(=O)[C@H](C)NC(=O)[C@H](CC(=O)O)NC(=O)[C@@H](C)NC(=O)[C@H](Cc1ccc(O)cc1)NC)[C@@H](C)CC)[C@@H](C)O)C(C)C)[C@@H](C)CC)C(=O)N[C@@H](CC(=O)O)C(=O)N[C@@H](CCCNC(=N)N)C(=O)NC [Peptide P-27404, [N—Me-Tyr^1, D-Ala^2, Fpa5^6, Orn^12, Abu^15, Orn^21, Nle^27, Asp^28]hGHRH (1-29)NH—CH3] (H-[NMeY][dA]DAI[Phe(F5)]TQSYR[Orn]VL[Abu]QLSAR[Orn]LLQDI[Nle]DR-NHMe) | = | = | ↑ | = | ↑ | ↑ | ↑ | ↑ | ↑ | = | = | = | = | = | = | ↑ | = | = | = | = | dP/dt min [2]: =; Relative affinity (Binding potency) compared to JI-38 [3]: 2.45; Relative affinity (Binding potency) compared to hGHRH(1-29) [3]: 6.83; Stimulation of growth hormone levels after subcutaneous administration (in words) [4]: stimulated greater growth hormone levels than hGHRH or JI-38; GH releasing potency relative to JI-38 (=1) ([4]; 15 min after): 2.07; GH releasing potency relative to JI-38 (=1) ([4]; 30 min after): 1.47 |
| CCCC[C@H](NC(=O)[C@@H](NC(=O)[C@H](CC(=O)O)NC(=O)[C@H](CCC(N)=O)NC(=O)[C@H](CC(C)C)NC(=O)[C@H](CC(C)C)NC(=O)[C@H](CCCN)NC(=O)[C@H](CCCNC(=N)N)NC(=O)[C@H](C)NC(=O)[C@H](CO)NC(=O)[C@H](CC(C)C)NC(=O)[C@H](CCC(N)=O)NC(=O)[C@H](CC)NC(=O)[C@H](CC(C)C)NC(=O)[C@@H](NC(=O)[C@H](CCCN)NC(=O)[C@H](CCCNC(=N)N)NC(=O)[C@H](Cc1ccc(O)cc1)NC(=O)[C@H](CO)NC(=O)[C@H](CC(N)=O)NC(=O)[C@@H](NC(=O)[C@H](Cc1ccccc1)NC(=O)[C@@H](NC(=O)[C@H](C)NC(=O)[C@H](CC(=O)O)NC(=O)[C@@H](C)NC(=O)[C@H](Cc1ccc(O)cc1)NC)[C@@H](C)CC)[C@@H](C)O)C(C)C)[C@@H](C)CC)C(=O)N[C@@H](CC(=O)O)C(=O)N[C@@H](CCCNC(=N)N)C(=O)NC [Peptide P-27409, [N—Me-Tyr^1, D-Ala^2, Orn^12, Abu^15, Orn^21, Nle^27, Asp^28]hGHRH(1-29)NH—CH3] (H-[NMeY][dA]DAIFTNSYR[Orn]VL[Abu]QLSAR[Orn]LLQDI[Nle]DR-NHMe) | ⬆⬆ | ⬆⬆ | ⬇⬇ | ⬇⬇ | = | = | ⬆⬆ | ↑ | ⬆⬆ | ↑ | = | = | ↓ | ⬆⬆ | ⬆⬆ | = | = | = | ⬆⬆ | = | cardiac dimensions (LVEDD and LVESD) ([1]; after MI): reduced cardiac dimensions; cardiac performance (EF and FS) ([1]; after MI): substantial improvement on cardiac performance; PRSW, index of contractility ([2]; after MI): markedly increased; dP/dt min [2]: =; Relative affinity (Binding potency) compared to JI-38 [3]: 2.71; Relative affinity (Binding potency) compared to hGHRH(1-29) [3]: 7.57; Stimulation of growth hormone levels after subcutaneous administration (in words) [4]: stimulated greater growth hormone levels than hGHRH or JI-38; GH releasing potency relative to JI-38 (=1) ([4]; 15 min after): 1.47; GH releasing potency relative to JI-38 (=1) ([4]; 30 min after): 1.31 |
